# According to BindingDB's records for doi:10.7270/Q23B5XKP (Vanderbilt Screening Center for GPCRs, Ion Channels and …, 2009):
# Target: T1, Solute carrier family 12 member 5 (Homo sapiens, UniProt Q9H2X9)
# T1 sequence (Q9H2X9 whole entry): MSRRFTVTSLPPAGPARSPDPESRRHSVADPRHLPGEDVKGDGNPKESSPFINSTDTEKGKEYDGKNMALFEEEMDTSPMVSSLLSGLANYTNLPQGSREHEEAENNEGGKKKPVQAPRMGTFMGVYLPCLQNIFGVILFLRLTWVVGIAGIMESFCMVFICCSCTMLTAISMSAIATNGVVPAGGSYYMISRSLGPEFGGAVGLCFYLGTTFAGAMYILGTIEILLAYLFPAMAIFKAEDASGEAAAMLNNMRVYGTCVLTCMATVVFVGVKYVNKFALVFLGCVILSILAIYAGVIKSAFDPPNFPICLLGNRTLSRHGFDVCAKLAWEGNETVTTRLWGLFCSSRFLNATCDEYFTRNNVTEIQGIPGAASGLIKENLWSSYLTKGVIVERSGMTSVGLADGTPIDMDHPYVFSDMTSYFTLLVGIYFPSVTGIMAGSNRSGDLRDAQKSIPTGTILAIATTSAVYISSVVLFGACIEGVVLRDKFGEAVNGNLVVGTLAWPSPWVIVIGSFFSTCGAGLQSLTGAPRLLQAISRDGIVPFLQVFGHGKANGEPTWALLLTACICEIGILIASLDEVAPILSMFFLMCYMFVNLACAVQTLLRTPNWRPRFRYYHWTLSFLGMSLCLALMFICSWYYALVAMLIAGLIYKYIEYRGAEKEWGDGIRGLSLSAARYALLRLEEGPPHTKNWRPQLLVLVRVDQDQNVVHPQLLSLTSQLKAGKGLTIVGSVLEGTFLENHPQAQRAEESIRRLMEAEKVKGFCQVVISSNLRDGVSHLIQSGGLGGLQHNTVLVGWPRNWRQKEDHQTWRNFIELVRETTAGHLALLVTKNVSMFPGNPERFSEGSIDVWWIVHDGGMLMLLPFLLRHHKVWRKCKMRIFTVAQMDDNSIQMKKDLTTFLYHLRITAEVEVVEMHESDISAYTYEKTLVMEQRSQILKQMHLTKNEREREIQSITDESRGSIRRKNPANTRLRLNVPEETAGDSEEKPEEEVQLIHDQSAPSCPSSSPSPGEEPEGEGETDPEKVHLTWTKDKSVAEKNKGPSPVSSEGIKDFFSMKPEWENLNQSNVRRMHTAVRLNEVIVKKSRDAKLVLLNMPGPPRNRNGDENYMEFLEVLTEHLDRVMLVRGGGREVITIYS
# Assay: KCC2 cotransport modulators, dose response, cell-based, assay 2 (AID 1723)
# Settings: not given
row,EC50 [µM],Structure (SMILES)
1,7.99,COc1cc(NC(=S)NC(=O)c2ccco2)ccc1NC(=O)C(C)C [MLS000672338]
2,1.19,CC(=O)c1cccc(NC(=S)NC(=O)c2ccc(C)cc2)c1 [MLS000687464]
3,11.2,Cc1cccc(N2CCN(C(=O)CCCn3c(=S)[nH]c4cc5c(cc4c3=O)OCO5)CC2)c1C [MLS000095366]
4,726,CC(=NNC(=O)c1ccc2c(c1)OCO2)c1ccc(Br)s1 [MLS000666595]
5,13.3,O=c1c2ccccc2[nH]c(=S)n1CCN1CCC(=C(c2ccc(F)cc2)c2ccc(F)cc2)CC1 [SMR000058550]
6,62.4,O=C(C=Cc1ccccc1)CC(=O)c1ccccc1O [MLS000627068]
7,15.6,CC(C)c1ccc(OCC(=O)NNC(=O)c2cnccn2)cc1 [MLS000332605]

# The next lines start with the molecule.
row,Structure (SMILES),EC50 [µM]
1,NC(=S)NN=C1C(=O)N(Cc2ccc(F)cc2)c2ccccc21 [1-[(Z)-[1-[(4-fluorophenyl)methyl]-2-oxidanylidene-indol-3-ylidene]amino]thiourea],7.58
2,"O=C(NC(=S)Nc1nc(-c2cccc([N+](=O)[O-])c2)cs1)c1ccccc1Cl [2-chloranyl-N-[[4-(3-nitrophenyl)-1,3-thiazol-2-yl]carbamothioyl]benzamide]",139
3,O=C1OC(c2ccc(O)cc2)(c2ccc(O)cc2)c2ccccc21,11.8
4,"N=C1SCC(=O)N1c1ncc(Cc2cccc(Cl)c2)s1 [2-azanylidene-3-[5-[(3-chlorophenyl)methyl]-1,3-thiazol-2-yl]-1,3-thiazolidin-4-one]",2.86
5,"Fc1cccc(F)c1C=NNC(=S)Nc1cccnc1 [1-[(2,6-difluorobenzylidene)amino]-3-(3-pyridyl)thiourea]",6.66
6,"Oc1ccccc1CN=Nc1nc2ccccc2o1 [(6E)-6-[(1,3-benzoxazol-2-ylhydrazo)methylidene]-1-cyclohexa-2,4-dienone]",31.1
7,"CCOc1ccc2nc(Sc3cc(O)n(-c4cccc(OC)c4)c3O)sc2c1 [3-(6-Ethoxy-benzothiazol-2-ylsulfanyl)-1-(3-methoxy-phenyl)-pyrrolidine-2,5-dione]",7.89
8,S=c1nc(-c2ccc3c(c2)CCO3)cc[nH]1,6.1
9,CCOc1cccc(C(=O)NC(=S)Nc2cccc(C)c2)c1 [3-ethoxy-N-(m-tolylthiocarbamoyl)benzamide],1.58
10,"COC(=O)[C@@H](NC(=O)O[C@@H]1C(=O)c2ccc(OC)cc2O[C@H]1c1cccc(C(F)(F)F)c1)C(C)C [(2S)-2-[[(2S,3S)-4-keto-7-methoxy-2-[3-(trifluoromethyl)phenyl]chroman-3-yl]oxycarbonylamino]-3-methyl-butyric acid methyl ester]",0.515
11,COc1ccc(Cn2c(=S)[nH]c3ccccc32)cc1 [1-(4-methoxybenzyl)-1H-benzimidazole-2-thiol],0.401
12,O=[N+]([O-])c1ccc(-c2cn(-c3ccccc3F)c(=S)[nH]2)cc1,0.616
13,"S=C(NCCc1ccccc1)NN=Cc1cccc(Cl)c1Cl [1-[(2,3-dichlorobenzylidene)amino]-3-phenethyl-thiourea]",10.1
14,Cc1[nH]n2c(=O)cc(C(C)C)nc2c1-c1ccccc1,21

# Same assay, conditions: inactive by the depositor's call
row,EC50 [µM],Structure (SMILES)
1,0.807,Cc1ccc(-c2n[nH]c(=S)n2NC=CCc2ccccc2[N+](=O)[O-])cc1
2,0.124,O=C(NC(=S)Nc1cccc2cccnc12)c1cccs1 [MLS000688132]
3,1.34,COc1ccccc1N1CCN(C(=S)NC(=O)/C=C/c2ccccc2)CC1 [(E)-N-[4-(2-Methoxy-phenyl)-piperazine-1-carbothioyl]-3-phenyl-acrylamide]
